Results published in US20100029710A1, “COMPOUNDS HAVING BOTH ANGIOTENSIN II RECEPTOR ANTAGONISM AND PPARy ACTIVATING ACTIVITIES” (Pfizer Products Inc., priority 2006, published 2010).

Experiments:
[1] = target: T1, human PPARγ LBD bound to Gal4 DBD (Homo sapiens, UniProt P37231); assay: PPARγ transfection luciferase reporter assay in HepG2 cells; format: cell-based
T1 construct: expressed in transfected cells; host or cells: HepG2
T1 sequence (P37231 238-503 limits assumed): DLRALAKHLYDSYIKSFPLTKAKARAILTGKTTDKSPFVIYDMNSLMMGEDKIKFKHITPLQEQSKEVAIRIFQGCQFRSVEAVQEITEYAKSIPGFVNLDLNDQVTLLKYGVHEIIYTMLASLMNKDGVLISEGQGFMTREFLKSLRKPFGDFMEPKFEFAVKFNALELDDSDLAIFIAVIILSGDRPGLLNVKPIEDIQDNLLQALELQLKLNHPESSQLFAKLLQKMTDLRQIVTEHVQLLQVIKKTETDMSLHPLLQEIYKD
Summary of the method: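 HepG2 cells transiently co-transfected with Gal4 DBD–PPARγ LBD, luciferase reporter and β-galactosidase, then exposed 24 h to compound (0.1 nM–100 μM). Luciferase/β-gal ratio gives activation. EC50 is relative to each compound's own maximum; efficacy is % of a reference TZD full agonist.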

[2] = tested on: Spontaneously hypertensive rats (SHR); assay: Blood pressure reduction in vivo assay (radiotelemetry); conditions: SHR rat, single dose 10 mg/kg p.o.
Experimental: The rats are surgically implanted with radio-telemetry transmitters to allow capture of conscious, unrestrained systolic and diastolic BP as well as heart rate.
In vivo studies were conducted to show the effectiveness of a compound in reducing blood pressure due to its angiotensin II receptor antagonist activity, and its ability to induce insulin sensitization in a diabetic rat due to its PPARγ agonist activity.
Spontaneously hypertensive rats (SHR) were implanted with radiotelemetry devices capable of measuring blood pressure (BP) via an aortic cannula and transmitting the data to a receiving pad under the cage. Animals were conscious and had access to food and water ad libitum while blood pressure was monitored continuously. Rats were dosed with vehicle and monitored for 24 hours to establish baseline before administering compound and measuring changes in blood pressure for another 24 hours. Changes in blood pressure were calculated over time and compared to vehicle controls.

[3] = target: T2, Human recombinant AT1 receptor (Homo sapiens, UniProt P30556); assay: AT1 receptor radioligand binding (flashplate); conditions: 125I Sar1,Ile8-Angiotensin II radioligand
T2 construct: purchased
T2 sequence (P30556 1-359): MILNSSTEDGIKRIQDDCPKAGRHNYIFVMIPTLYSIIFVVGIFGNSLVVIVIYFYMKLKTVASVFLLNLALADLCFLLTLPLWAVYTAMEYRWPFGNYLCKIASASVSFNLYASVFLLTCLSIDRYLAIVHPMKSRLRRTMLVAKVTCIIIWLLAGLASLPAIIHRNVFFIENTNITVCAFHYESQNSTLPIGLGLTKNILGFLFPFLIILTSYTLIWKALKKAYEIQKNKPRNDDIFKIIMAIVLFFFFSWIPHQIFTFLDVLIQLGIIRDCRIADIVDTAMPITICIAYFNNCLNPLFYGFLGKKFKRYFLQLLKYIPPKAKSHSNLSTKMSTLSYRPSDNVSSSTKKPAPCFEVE
Summary of the method: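 Human recombinant AT1 receptor was coated on flashplates and competed against 125I-Sar1,Ile8-angiotensin II at its Kd concentration for 2 h at room temperature. Compounds were tested from […], with nonspecific binding defined by 10 μM angiotensin II. Ki was derived via Cheng-Prusoff.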

ZDF male rat = assay: Glucose lowering in vivo assay; conditions: 10 mg/kg p.o. once daily for 28 days
Source text: Homozygous expression of this mutation leads to a phenotype of hyperphagia, obesity, insulin resistance, hyperglycemia, and hypertriglyceridemia resulting in uncontrolled diabetes, β-cell failure, severe nephropathy, and proteinuria by 16 weeks of age.
The hypoglycemic activity of the compounds of this invention can be determined by the amount of test compound that delays or suppresses elevations in glucose levels relative to a vehicle without test compound in male ZDF rats.
Male Zucker Diabetic Fatty (ZDF/Crl-Lepr^fa) rats were obtained from Charles River Laboratories (Wilmington, Mass.). Rats were pair housed under a 12-h light/dark cycle with free access to water and Purina 5008 rat chow (Protein 26.8%, fat 16.7%, carbohydrates 56.5% kcal/vol; Purina Mills, Richmond, Ind.). Prior to the onset of diabetic hyperglycemia (fed blood glucose<200 mg/dl) rats were randomly allocated to groups based on HOMA values. The Homeostasis Model Assessment (HOMA) calculation estimates peripheral insulin resistance from corresponding insulin and glucose measurements. Rats were administered a once daily oral dose for 28 days with suspensions of vehicle alone (1.5% carboxymethyl-cellulose plus 0.2% Tween 20), vehicle plus test compound in the range 0.1-100 mg/kg. At the end of the study, an oral glucose tolerance test (OGTT, 2 g/kg dextrose) was conducted to measure glucose excursion. Tail venipuncture in conscious, 1 hr fasted animals at baseline and weekly thereafter, provided sample for blood glucose, serum insulin, triglycerides, cholesterol, and FFA measurements. Glucose levels were determined with a HemoCue Glucose Monitor (Ryan Diagnostics), insulin was determined by ELISA (Alpco), and lipids were determined by Cobas Mira Analyzer (Roche) and by enzymatic assays (Wako). Lipoprotein cholesterol was determined by FPLC following the method of Kieft et al. (Kieft K A, Bocan T M, Krause B R. Rapid on-line determination of cholesterol distribution among plasma lipoproteins after high-performance gel filtration chromatography. J Lipid Res 1991; 32(5): 859-66). Briefly, plasma was separated on a Superose 6HR 10/30 column (Pharmacia) and cholesterol was then measured in-line utilizing a post-column enzymatic cholesterol assay (Roche). Percent of total area for each lipoprotein fraction were calculated. These percent areas were then multiplied by the total plasma cholesterol concentration, yielding the cholesterol concentration in each fraction. Efficacy was determined by comparison to untreated vehicle controls and reference agents and active compounds selected for further evaluation.

Emax ([1]; HepG2, 24 h, compared to full agonist response (standard TZD full agonist), read-out: PPARγ % activation): 26%
EC50 ([1]; HepG2, 24 hours exposure): 435 nM
IC50 [3]: 2.5 nM
Structure (SMILES): CCc1nc2c(C)cc(CCOC)nc2n1[C@H]1CCc2cc(-c3ccccc3-c3nnn[nH]3)ccc21 [Example 13, 3-((1S)-5-(2-(1H-tetrazol-5-yl)phenyl)-2,3-dihydro-1H-inden-1-yl)-2-ethyl-5-(2-methoxyethyl)-7-methyl-3H-imidazo[4,5-b]pyridine]
Duration of activity [2]: >20 h
Maximal fall in Mean Blood Pressure after single dose of 10 mg/kg p.o. (mmHg) [2]: −46 mmHg
Blood Glucose (1 h Fast) after single daily dose of 10 mg/kg p.o. for 28 days (ZDF male rat; 1 h fast): 120 mg/dL
Difference from Vehicle Control (ZDF male rat; blood glucose): -469 mg/dL
